We go through nine molecules from patent US6489327B1, “Tryptase inhibitors” (Max-Planck-Gesellschaft zur Fordrungder Wisenschaften, e.V., priority 1998, dated 2002).

Structures can show the parent of a compound that is named as a salt.

The experiment concerns the target human tryptase. Put plainly: Inhibition of human tryptase: apparent dissociation constant Kiapp, chromogenic substrate tos-Gly-Pro-Arg-pNA. Format: biochemical. To be noted: apparent dissociation constant in presence of substrate; human tryptase from lung tissue, 50 μg of heparin/ml. The source says: The documented pathophysiological effects of mast cell tryptase are brought about directly by the enzymic activity of the protease. Accordingly, they are reduced or blocked by inhibitors which inhibit the enzymatic activity of the tryptase. The equilibrium dissociation constant Ki of the enzyme-inhibitor complex is a suitable measure of the affinity of a reversible inhibitor for the target protease. This Ki value can be determined by measuring the effect of the inhibitor on the tryptase-induced cleavage of a chromogenic peptide-p-nitroanilide substrate or a fluorogenic peptide-aminomethylcoumarin substrate.
The dissociation constants of the tryptase-inhibitor complexes are determined under equilibrium conditions in accordance with the general recommendations of Bieth (Bieth J G, Pathophysiological interpretation of kinetic constants of protease inhibitors, Bull. Europ. Physiopath. Resp. 16:183-195, 1980) and the methods of Sommerhoff et al. (Sommerhoff C P et al., A. Kazal-type inhibitor of human mast cell tryptase: Isolation from the medical leech Hirudo medicinalis, characterization, and sequence analysis, Biol. Chem. Hoppe-Seyler 375: 685-694, 1994).
Human tryptase is prepared in a pure state from lung tissue; the specific activity of the isolated protease, determined by means of titration, is normally 85% of the theoretical value. Constant quantities of tryptase are incubated with increasing quantities of the inhibitors in the presence of 50 μg of heparin/ml for stabilizing the protease. After the equilibrium has been established between the reaction partners, the remaining enzyme activity is determined after adding the peptide-p-nitroanilide substrate tos-Gly-Pro-Arg-pNA, the cleavage of which is monitored at 405 nm over a period of 3 min. Alternatively, the residual enzymic activity can also be determined using fluorogenic substrates. The apparent dissociation constants Kiapp (i.e. in the presence of substrate) are subsequently ascertained by nonlinear regression by fitting the enzyme rates to the general equation for reversible inhibitors (Morrison J F, Kinetics of the reversible inhibition of enzyme-catalysed reactions by tight-binding inhibitors, Biochim. Biophys. Acta 185, 269-286, 1969):
V1/V0=1−{Et+lt+Kiapp−[(Et+lt+Kiapp)^2−4Etlt]^½}/2Et
In this equation, V1 and V0 are the rates in the presence and absence of the inhibitor, respectively, and Et and lt are the concentrations of the tryptase and of the inhibitor.
The apparent dissociation constants which were determined for the compounds according to the invention are given in Table A below, in which the numbers of the compounds correspond to the numbers of the compounds in the examples.
Turning to `NCC1CCC(C(=O)NC2CCN(C(=O)c3cccc(C(=O)N4CCC(NC(=O)C5CCC(CN)CC5)CC4)n3)CC2)CC1` (stereo not drawn) [Compound 15, Pyridine-2,6-dicarbobis[4-(4-aminomethylcyclohexylcarbonylamino)-1-piperidide]], the Ki was 3000 nM.
The same measure for `NCc1cccc(C(=O)NC2CCN(C(=O)c3cccc(C(=O)N4CCC(NC(=O)c5cccc(CN)c5)CC4)n3)CC2)c1` [Compound 11, Pyridine-2,6-dicarbobis[4-(3-aminomethylbenzoylamino)-1-piperidide]]: 30 nM.
Take `NCc1cccc(C(=O)N2CCN(C(=O)Nc3ccc(Oc4ccc(NC(=O)N5CCN(C(=O)c6cccc(CN)c6)CC5)cc4)cc3)CC2)c1` [Compound 21, Bis{4-[4-(3-aminomethyl)benzoylpiperazin-1-yl]-carbonyl}-4,4′-diaminodiphenyl ether dihydrochloride]: the Ki stood at 100 nM.
Consider `NCc1cccc(C(=O)N2CCN(C(=O)c3cccc(C(=O)N4CCN(C(=O)c5cccc(CN)c5)CC4)n3)CC2)c1` [Compound 1, Pyridine-2,6-dicarbobis[4-(3-aminomethylbenzoyl)-1-piperazide]], for which the Ki amounted to 3000 nM.
Consider `CC(C)(c1ccc(OC(=O)N2CCN(C(=O)NCc3ccc(CN)cc3)CC2)cc1)c1ccc(OC(=O)N2CCN(C(=O)NCc3ccc(CN)cc3)CC2)cc1` [Compound 36, 2,2-Bis-{4-[4-(4-aminomethylbenzylcarbamoyl)-1-piperazinylcarbonyloxy]phenyl}propane dihydrochloride], for which the Ki was found to be 28 nM.
As for `CC(C)(c1ccc(OCC(=O)NCc2ccc(NC(=N)N)cc2)cc1)c1ccc(OCC(=O)NCc2ccc(NC(=N)N)cc2)cc1` [Compound 31, 2,2-Bis-[4-(4-guanidinylbenzylamino)carbonylmethoxyphenyl]propane dihydroacetate], the figure is 200 nM; as for `NCC1CCC(C(=O)N2CCN(C(=O)Nc3ccc(Oc4ccc(NC(=O)N5CCN(C(=O)C6CCC(CN)CC6)CC5)cc4)cc3)CC2)CC1` (stereo not drawn) [Compound 17, Bis{4-[4-(4-aminomethyl)cyclohexanoylpiperazin-1-yl]-carbonyl}-4,4′-diaminodiphenyl ether dihydrochloride], 22000 nM.
The same measure for `CC(C)(c1ccc(OCC(=O)NCC(=O)NCCCCN)cc1)c1ccc(OCC(=O)NCC(=O)NCCCCN)cc1` [Compound 34, 2,2-Bis-[4-(10-amino-3,6-diaza-2,5-dioxodecyloxy)-phenyl]propane dihydrochloride]: 2000 nM.
The same measure for `NCC1CCC(C(=O)NC2CCN(C(=O)NC3CCC(CC4CCC(NC(=O)N5CCC(NC(=O)C6CCC(CN)CC6)CC5)CC4)CC3)CC2)CC1` (stereo not drawn) [Compound 23, Di{4-[4-(4-aminomethyl)cyclohexanoylamino]piperidin-1-ylcarbamoyl}cyclohexylmethane dihydrochloride]: 800 nM.
